Reference: ChEMBL document CHEMBL1201862, “PubChem BioAssay data set” (2004)
Calls of active or inactive are those of the source.

Key:
[1] = protection from phage-mediated lysis, alamar blue read-out – E. coli UTI89, K1F phage, bacterial capsule biogenesis inhibitors (AID 488966); format: functional
[2] = molecular target: T1, DNA repair protein RAD52 homolog (Homo sapiens, UniProt P43351); format: functional, biochemical
T1 sequence (P43351 whole entry): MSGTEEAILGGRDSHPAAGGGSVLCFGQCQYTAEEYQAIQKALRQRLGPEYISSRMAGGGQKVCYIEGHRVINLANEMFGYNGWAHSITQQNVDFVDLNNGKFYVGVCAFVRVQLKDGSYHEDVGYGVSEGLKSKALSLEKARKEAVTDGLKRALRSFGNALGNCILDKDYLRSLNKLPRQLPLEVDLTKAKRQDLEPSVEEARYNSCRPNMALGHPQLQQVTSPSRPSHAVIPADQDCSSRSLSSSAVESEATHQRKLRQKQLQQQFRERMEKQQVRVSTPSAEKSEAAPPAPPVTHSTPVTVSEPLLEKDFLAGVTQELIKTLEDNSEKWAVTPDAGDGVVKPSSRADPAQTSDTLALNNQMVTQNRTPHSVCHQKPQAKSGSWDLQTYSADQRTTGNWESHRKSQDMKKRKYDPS

[3] = molecular target: T2, Rac GTPase-activating protein 1 (Homo sapiens, UniProt Q9H0H5); assay: blockers of MgcRacGAP-driven Rac1 GTP hydrolysis – biochemical, ADP Hunter fluorescence, primary and confirmatory, confirmation (AID 624330); format: functional
T2 sequence (Q9H0H5 whole entry): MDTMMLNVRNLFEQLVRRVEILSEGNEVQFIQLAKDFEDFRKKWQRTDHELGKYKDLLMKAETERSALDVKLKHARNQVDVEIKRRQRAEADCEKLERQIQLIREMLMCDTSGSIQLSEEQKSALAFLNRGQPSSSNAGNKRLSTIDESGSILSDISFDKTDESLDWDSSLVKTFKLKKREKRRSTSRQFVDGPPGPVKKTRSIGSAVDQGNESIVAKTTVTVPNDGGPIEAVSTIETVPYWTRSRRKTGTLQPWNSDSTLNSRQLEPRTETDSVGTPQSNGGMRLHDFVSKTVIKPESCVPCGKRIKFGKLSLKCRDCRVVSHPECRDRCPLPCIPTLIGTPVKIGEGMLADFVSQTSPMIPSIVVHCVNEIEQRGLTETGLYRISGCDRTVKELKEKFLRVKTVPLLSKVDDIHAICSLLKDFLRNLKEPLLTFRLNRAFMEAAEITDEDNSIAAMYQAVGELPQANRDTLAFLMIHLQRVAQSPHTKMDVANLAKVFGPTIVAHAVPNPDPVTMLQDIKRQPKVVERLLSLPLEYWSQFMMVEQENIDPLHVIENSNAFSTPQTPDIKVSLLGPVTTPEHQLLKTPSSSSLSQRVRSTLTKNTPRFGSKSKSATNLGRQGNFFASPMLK

[4] = viability loss in HeLa cells – cytotoxicity control for MgcRacGAP inhibitor project, dose response (AID 624300); format: functional
[5] = molecular target: Eukaryotic translation initiation factor 4H (Homo sapiens, UniProt Q15056); assay: inhibitors of translation initiation factor eIF4H – SAR follow-up (AID 435011); format: functional
[6] = molecular target: Polyadenylate-binding protein 1 (Homo sapiens, UniProt P11940); assay: PABP inhibition in translation initiation, SAR follow-up (AID 435018); format: functional
Polyadenylate-binding protein 1, sequence (P11940 whole entry): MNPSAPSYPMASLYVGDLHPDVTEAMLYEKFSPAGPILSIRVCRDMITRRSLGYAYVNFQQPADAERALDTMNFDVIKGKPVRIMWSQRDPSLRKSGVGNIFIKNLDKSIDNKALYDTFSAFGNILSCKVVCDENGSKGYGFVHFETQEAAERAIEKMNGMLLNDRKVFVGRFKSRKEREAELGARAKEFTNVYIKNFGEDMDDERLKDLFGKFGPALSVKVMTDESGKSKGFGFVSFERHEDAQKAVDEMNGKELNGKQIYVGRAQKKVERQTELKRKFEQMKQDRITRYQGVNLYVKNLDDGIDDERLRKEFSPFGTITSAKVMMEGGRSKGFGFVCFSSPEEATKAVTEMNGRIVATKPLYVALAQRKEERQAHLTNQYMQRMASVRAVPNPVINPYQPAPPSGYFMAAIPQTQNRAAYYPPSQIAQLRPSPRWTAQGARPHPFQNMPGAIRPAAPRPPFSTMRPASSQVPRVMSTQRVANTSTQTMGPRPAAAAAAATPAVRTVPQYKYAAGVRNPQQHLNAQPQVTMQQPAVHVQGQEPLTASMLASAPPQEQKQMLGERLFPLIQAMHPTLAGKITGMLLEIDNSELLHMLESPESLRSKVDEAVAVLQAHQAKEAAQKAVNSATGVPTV

[7] = molecular target: T3, Tyrosine-protein phosphatase non-receptor type 7 (Homo sapiens, UniProt P35236); assay: redox-active compounds inhibiting HePTP phosphatase – biochemical, fluorescence, mechanism study (AID 2068); format: functional
T3 sequence (P35236 whole entry): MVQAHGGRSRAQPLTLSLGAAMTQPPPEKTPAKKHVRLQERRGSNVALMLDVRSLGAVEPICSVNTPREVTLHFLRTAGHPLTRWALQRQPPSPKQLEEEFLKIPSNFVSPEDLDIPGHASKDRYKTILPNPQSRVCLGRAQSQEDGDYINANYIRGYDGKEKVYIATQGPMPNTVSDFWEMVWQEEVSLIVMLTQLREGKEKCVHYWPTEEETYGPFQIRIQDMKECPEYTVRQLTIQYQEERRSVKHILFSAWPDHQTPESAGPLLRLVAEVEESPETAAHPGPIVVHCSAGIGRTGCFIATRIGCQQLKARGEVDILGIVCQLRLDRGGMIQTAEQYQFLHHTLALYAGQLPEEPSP

[8] = molecular target: T3, Tyrosine-protein phosphatase non-receptor type 7; format: functional
[9] = molecular target: Glyceraldehyde-3-phosphate dehydrogenase (Homo sapiens, UniProt P04406)
Glyceraldehyde-3-phosphate dehydrogenase, sequence (P04406 whole entry): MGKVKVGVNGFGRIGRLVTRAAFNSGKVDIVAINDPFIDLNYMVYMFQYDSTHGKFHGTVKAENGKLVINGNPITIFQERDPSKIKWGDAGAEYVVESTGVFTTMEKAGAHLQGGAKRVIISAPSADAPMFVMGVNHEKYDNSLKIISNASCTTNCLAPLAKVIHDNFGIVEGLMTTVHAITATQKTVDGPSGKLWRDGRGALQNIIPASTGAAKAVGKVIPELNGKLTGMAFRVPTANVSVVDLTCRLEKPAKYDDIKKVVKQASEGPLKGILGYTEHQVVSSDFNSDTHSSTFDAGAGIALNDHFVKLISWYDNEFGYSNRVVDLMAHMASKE

[10] = molecular target: T4, Dual specificity protein phosphatase 3 (Homo sapiens, UniProt P51452); assay: MOA VHR1 Fluorescent secondary assay for identification of redox-state modulating compounds. [Related pubchem assays (depositor defined):AID1654, AID1661, AID1878, AID1957]
T4 sequence (P51452 whole entry): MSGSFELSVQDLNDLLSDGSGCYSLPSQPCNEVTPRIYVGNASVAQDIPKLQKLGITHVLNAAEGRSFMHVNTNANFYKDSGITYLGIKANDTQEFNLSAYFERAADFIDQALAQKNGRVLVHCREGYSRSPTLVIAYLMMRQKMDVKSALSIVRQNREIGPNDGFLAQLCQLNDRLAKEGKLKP

[11] = molecular target: T5, Dual specificity protein phosphatase 6 (Rattus norvegicus, UniProt Q64346); format: functional
T5 sequence (Q64346 whole entry): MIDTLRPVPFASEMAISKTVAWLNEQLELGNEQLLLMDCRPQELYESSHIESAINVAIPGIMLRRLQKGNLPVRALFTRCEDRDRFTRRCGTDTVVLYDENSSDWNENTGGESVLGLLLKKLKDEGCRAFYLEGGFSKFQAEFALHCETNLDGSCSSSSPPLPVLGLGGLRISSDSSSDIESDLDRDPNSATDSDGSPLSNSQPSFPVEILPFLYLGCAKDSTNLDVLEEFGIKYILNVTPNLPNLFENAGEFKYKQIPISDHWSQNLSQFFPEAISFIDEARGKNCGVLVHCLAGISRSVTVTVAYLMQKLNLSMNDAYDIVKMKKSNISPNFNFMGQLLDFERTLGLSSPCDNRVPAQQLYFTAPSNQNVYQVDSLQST

[12] = molecular target: T5, Dual specificity protein phosphatase 6
[13] = molecular target: T4, Dual specificity protein phosphatase 3; assay: SAR VHR1 Fluorescent Assay for In Vitro dose response studies. [Related pubchem assays (depositor defined):AID1654, AID1661, AID1878, AID1992, AID2004, AID2070, AID2085]; format: functional
[14] = molecular target: Intestinal-type alkaline phosphatase (Homo sapiens, UniProt P09923); assay: Dose Response confirmation of uHTS hits from a small molecule inhibitors of human intestinal alkaline phosphatase via a luminescent assay. [Related pubchem assays (depositor defined):AID2544, AID2574]; format: functional
Insulin-degrading enzyme [15] = molecular target: T6, Insulin-degrading enzyme (Homo sapiens, UniProt P14735); assay: recombinant IDE activation, cell-free – biochemical, fluorescence polarization, counter-screen for IDE activator project, dose response (AID 588681)
T6 sequence (P14735 whole entry): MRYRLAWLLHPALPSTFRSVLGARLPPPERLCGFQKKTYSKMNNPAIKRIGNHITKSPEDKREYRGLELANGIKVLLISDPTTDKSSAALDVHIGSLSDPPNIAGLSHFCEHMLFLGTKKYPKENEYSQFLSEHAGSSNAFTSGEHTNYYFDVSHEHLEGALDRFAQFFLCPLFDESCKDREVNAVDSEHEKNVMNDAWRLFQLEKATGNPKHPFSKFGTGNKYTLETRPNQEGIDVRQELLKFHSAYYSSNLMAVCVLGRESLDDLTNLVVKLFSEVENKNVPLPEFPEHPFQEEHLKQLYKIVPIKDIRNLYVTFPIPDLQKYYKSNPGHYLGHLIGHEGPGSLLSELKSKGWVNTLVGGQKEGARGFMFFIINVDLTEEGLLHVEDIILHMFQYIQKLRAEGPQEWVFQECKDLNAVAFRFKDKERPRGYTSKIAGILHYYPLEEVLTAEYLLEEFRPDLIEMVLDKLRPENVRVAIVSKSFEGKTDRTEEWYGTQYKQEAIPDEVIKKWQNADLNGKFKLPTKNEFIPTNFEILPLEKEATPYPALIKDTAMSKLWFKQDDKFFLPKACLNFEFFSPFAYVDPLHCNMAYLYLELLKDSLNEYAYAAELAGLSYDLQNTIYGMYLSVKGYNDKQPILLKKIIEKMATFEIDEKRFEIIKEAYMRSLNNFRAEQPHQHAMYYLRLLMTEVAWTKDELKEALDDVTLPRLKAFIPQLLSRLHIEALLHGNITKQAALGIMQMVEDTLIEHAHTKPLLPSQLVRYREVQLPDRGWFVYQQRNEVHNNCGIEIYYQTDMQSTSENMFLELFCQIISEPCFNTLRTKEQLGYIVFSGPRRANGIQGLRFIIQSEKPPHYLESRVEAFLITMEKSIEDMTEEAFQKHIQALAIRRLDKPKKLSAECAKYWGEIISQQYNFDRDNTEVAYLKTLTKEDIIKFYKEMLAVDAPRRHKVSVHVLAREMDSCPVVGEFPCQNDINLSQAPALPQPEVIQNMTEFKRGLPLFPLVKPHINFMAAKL

Insulin-degrading enzyme [16] = molecular target: T6, Insulin-degrading enzyme; assay: cellular IDE activation of Abeta substrate cleavage – fluorescence polarization, HEK cells, dose response (AID 588439); format: functional, cell-based
ORF 73 = ORF 73 (Human herpesvirus 8, UniProt O40947); assay: KSHV LANA DNA-binding disruption – biochemical, fluorescence polarization, cherry-picked samples, dose response (AID 504725); parameters: species or system Human gammaherpesvirus 8;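 note: fluorescence polarization of a labeled DNA duplex reporting LANA DNA binding; potency is for inhibitors that block LANA binding to the DNA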
ORF 73, sequence (O40947 whole entry): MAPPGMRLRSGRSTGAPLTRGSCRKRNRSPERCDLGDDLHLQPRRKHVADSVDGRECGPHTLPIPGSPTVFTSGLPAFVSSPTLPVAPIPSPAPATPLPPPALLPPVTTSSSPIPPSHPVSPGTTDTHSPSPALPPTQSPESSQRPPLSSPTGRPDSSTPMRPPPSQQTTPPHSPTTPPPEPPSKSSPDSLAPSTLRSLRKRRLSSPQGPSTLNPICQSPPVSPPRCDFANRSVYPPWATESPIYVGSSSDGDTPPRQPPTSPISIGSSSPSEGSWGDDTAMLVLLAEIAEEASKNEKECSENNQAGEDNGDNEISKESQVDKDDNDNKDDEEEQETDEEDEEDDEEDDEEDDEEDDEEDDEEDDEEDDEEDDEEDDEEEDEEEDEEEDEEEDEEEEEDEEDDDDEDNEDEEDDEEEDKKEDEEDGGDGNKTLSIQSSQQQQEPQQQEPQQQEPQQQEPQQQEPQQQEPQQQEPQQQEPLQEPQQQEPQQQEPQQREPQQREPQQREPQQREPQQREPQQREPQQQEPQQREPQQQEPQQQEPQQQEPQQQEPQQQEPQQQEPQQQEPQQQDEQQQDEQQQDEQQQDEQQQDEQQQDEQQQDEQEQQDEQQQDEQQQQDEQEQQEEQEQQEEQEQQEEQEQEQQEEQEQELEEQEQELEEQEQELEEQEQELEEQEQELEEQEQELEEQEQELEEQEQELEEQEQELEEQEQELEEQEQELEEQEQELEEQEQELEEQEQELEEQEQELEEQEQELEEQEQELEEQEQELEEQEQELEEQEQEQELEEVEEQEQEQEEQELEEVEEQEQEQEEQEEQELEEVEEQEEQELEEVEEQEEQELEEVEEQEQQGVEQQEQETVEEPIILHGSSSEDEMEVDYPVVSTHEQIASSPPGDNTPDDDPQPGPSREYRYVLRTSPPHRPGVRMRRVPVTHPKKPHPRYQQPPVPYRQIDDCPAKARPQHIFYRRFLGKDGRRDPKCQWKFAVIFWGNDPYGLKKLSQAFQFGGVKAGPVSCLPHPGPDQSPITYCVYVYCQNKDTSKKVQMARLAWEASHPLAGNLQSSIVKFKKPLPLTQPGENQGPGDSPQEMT

HEK293 [17] = assay: optical interference in Abeta FP readout, dose response, artefact control for IDE activator project, biochemical, fluorescence polarization (AID 588442); format: functional, cell-based; details: Homo sapiens
[18] = viability loss in THP-1 monocytes – THP-1 cells, cytotoxicity control for Vif-APOBEC3G degradation inhibitor project, dose response (AID 1117359); format: functional; details: THP-1
HEK293 [19] = assay: membrane integrity loss in HEK cells – cell-based, fluorescence, cytotoxicity control for IDE activator project, dose response (AID 588440); format: functional; details: Homo sapiens;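 note: cytotoxicity by LDH release measuring loss of membrane integrity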
HeLa = assay: viability loss in HeLa cells – cell-based, 24 h, cherry-picked samples, cytotoxicity control, dose response (AID 504726); format: functional; details: Homo sapiens;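 note: potency for cytotoxicity as loss of luminescence signal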
[20] = molecular target: Cystic fibrosis transmembrane conductance regulator/Golgi-associated PDZ and coiled-coil motif-containing protein (Homo sapiens, UniProt P13569+Q9HD26); assay: potency against CAL PDZ-peptide interaction – biochemical, fluorescence polarization, Cerulean-tagged CAL PDZ, cherry-picks, dose response (AID 504773)
Cystic fibrosis transmembrane conductance regulator/Golgi-associated PDZ and coiled-coil motif-containing protein, sequence (P13569 whole entry, other chains not shown): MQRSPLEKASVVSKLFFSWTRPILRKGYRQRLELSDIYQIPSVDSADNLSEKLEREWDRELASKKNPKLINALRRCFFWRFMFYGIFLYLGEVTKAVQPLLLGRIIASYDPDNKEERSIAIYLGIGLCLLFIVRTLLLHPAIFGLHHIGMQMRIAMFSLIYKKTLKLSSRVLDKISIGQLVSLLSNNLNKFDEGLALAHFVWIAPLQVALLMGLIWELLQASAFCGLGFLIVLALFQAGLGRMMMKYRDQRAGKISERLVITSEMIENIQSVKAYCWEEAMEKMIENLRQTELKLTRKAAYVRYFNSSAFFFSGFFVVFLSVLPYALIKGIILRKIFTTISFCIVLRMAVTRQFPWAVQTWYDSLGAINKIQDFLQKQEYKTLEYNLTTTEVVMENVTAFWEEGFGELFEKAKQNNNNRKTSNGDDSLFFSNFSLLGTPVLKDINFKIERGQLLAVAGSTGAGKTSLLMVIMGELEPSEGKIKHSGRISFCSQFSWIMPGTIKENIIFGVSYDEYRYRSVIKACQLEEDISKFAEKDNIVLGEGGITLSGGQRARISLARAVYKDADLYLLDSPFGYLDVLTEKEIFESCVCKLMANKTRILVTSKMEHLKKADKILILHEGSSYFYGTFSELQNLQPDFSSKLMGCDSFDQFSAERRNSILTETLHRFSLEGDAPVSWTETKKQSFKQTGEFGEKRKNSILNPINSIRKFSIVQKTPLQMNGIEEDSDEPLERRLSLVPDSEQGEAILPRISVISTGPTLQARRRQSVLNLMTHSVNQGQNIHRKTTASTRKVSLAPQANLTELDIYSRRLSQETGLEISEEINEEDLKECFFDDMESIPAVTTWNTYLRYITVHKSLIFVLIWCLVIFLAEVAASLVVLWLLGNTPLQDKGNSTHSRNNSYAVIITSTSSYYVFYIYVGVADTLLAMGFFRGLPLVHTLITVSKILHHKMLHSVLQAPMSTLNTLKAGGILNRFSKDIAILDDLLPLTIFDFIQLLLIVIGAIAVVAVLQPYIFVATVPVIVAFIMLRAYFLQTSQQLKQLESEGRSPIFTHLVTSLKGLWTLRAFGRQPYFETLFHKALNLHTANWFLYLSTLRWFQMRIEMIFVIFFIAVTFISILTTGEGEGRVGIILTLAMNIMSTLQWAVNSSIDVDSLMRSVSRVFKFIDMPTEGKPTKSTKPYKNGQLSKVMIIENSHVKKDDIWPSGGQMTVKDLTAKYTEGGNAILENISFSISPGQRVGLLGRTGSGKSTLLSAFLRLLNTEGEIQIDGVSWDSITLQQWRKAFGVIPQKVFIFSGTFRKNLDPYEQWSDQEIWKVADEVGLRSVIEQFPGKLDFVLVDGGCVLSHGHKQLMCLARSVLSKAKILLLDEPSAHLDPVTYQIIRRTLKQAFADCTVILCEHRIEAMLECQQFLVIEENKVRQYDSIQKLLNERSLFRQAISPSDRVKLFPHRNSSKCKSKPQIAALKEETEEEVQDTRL

Paired box protein Pax-8 = Paired box protein Pax-8 (Homo sapiens, UniProt Q06710); assay: PAX8 transcriptional activity inhibition in RMG-I – RMG-I cells, luciferase, cherry-pick, dose response (AID 687027); format: functional, cell-based;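 note: luciferase reporter driven by Pax8 target thyroperoxidase promoter measured by SteadyGlo luminescence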
Paired box protein Pax-8, sequence (Q06710 whole entry): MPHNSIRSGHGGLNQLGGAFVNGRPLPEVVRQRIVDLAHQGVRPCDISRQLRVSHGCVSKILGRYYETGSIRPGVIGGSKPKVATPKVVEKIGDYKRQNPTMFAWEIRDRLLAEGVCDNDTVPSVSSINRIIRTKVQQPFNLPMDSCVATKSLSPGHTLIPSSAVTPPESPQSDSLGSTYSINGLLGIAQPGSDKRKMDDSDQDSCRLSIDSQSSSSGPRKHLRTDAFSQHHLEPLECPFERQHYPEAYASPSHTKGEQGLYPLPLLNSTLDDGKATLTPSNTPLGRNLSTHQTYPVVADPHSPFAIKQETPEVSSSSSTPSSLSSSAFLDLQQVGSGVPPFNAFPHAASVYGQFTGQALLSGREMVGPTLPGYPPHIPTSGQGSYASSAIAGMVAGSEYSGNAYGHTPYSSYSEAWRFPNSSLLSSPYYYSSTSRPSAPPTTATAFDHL

[21] = molecular target: Glutathione-S-transferase (Schistosoma japonicum, UniProt Q26513); assay: GST-antibody interaction or FRET quenching – biochemical, TR-FRET, artefact control for Vif-APOBEC3G degradation inhibitor project, dose response (AID 1117362); format: functional
Glutathione-S-transferase, sequence (Q26513 whole entry): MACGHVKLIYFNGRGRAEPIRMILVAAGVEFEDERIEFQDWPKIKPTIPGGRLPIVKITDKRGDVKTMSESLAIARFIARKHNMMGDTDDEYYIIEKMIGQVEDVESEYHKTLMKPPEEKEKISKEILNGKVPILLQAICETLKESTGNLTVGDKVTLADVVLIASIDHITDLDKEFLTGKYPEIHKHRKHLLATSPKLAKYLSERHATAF

INS1 = assay: INS-1E survival protection against cytokine death – cell-based, luminescence, retest, dose response (AID 449756); format: functional; details: Rattus norvegicus;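 note: cell death triggered by IL-1 beta plus TNF-alpha plus IFN-gamma mixture; protective hits raise ATP signal compared with cytokine alone wells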
[22] = M. tuberculosis H37Rv growth inhibitors, H37Rv strain (AID 1626); format: functional
[23] = Luminescence Cell-Based Dose Retest to Confirm Inhibitors of Cancer Stem Cells. [Related pubchem assays (depositor defined):AID2717, AID2721]; format: functional; details: Homo sapiens
[24] = molecular target: Envelope glycoprotein gp160 (Human immunodeficiency virus 1, UniProt Q6QLK5); assay: cell-free HIV fusion peptide-binding blockers – biochemical, uHTS, fluorescence dequenching, […] (AID 1986)

O=C1c2cccc(NCCNCCO)c2C(=O)c2cccc(NCCNCCO)c21
IC50 [1]: > 300 µM (active)
AC50 [2]: < 0.15 µM (active)
IC50 [3]: 41.3 µM (active)
CC50 [4]: 23.1 µM (active)

COc1cc(C=NNC(=O)c2ccccc2O)ccc1OCC(=O)Nc1ccccc1
IC50 [5]: 2.41 µM (active)
IC50 [6]: 52.6 µM (active)

Cc1cc(C)c2nc3s/c(=C\c4ccc(-c5ccccc5C(=O)O)o4)c(=O)n3c2c1
IC50 [7]: 0.805 µM (active)
IC50 [8]: 2.4 µM (active)
IC50 [9]: 87.1 µM (active)
IC50 [10]: 0.68 µM (active)
IC50 [11]: 15.6 µM (active)
IC50 [12]: 13.8 µM (active)
IC50 [13]: 5.82 µM (active)

COC(=O)c1ccccc1-c1c2ccc(=N)cc-2oc2cc(N)ccc12
IC50 [14]: > 100 µM (inactive)
EC50 (Insulin-degrading enzyme [15]): > 54.7 µM (inactive)
EC50 (Insulin-degrading enzyme [16]): > 54.7 µM (inactive)
AC50 (ORF 73): < 0.015 µM (active)
EC50 (HEK293 [17]): 0.045 µM (active)
CC50 [18]: 5.49 µM (active)
IC50 (HEK293 [19]): > 89.2 µM (inactive)
AC50 (HeLa): 34 µM (active)
AC50 [20]: 3.6 µM (active)
AC50 (Paired box protein Pax-8): 1.41 µM (active)
IC50 [21]: 9.91 µM (active)

O=S(=O)(Nc1nc2ccccc2nc1Nc1ccc(N2CCOCC2)cc1)c1cc(Cl)ccc1Cl
AC50 (INS1): 5.91 µM (active)
IC50 [22]: > 100 µM (active)
AC50 [23]: 4.38 µM (active)
IC50 [24]: > 99 µM (inactive)
